Measurements reported in US20170334899A1, “AMINO-SUBSTITUTED ISOTHIAZOLES” (Bayer Pharma Aktiengesellschaft, priority 2014, published 2017).

Legend:
[1] = tested on: human cervical tumor cell line HeLa (ATCC CCL-2); assay: SAC-Formation - Nocodazole-Induced Assay; format: cell-based; conditions: Homo sapiens, HeLa, 24 h, HeLa cells, nocodazole 0.1 μg/ml together with test compound, decrease of mitotic cells (phospho-histone H3 Ser10)
How it was run: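 Loss of phospho-histone H3 Ser10-positive cells, counted against Hoechst-stained nuclei by high-content imaging, marked mitotic breakthrough. Compounds (0.005–20 μM, 0.5% DMSO) were co-dosed with 0.1 μg/ml nocodazole onto HeLa cells for 24 h at 37 °C. Curves were fitted with a four-parameter Hill equation.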

[2] = tested on: human cervical tumor cell line HeLa (ATCC CCL-2); assay: SAC-Formation - Paclitaxel-Induced Assay; format: cell-based; conditions: Homo sapiens, HeLa, 24 h, HeLa cells, paclitaxel 0.05 μM, test range 0.005 μM-20 μM, read-out: IC50 [mol/l] SAC-Formation - Paclitaxel-Induced Assay
How it was run: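 Read-out is high-content imaging of anti-phospho-H3 Ser10 (mitosis) and Hoechst 33342 (DNA, cell number), with decreased mitotic fraction marking checkpoint breakthrough. Compounds (0.005–20 μM) and 0.05 μM paclitaxel co-added to overnight-plated HeLa for 24 h at 37° C; four-parameter Hill fit.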

SMILES	IC50 [1]	IC50 [2]
CCNC(=O)c1cccc(NC(=O)c2c(C)nsc2Nc2ccc(C#N)cn2)c1 [Example 252, 5-[(5-cyanopyridin-2-yl)amino]-N-[3-(ethylcarbamoyl)phenyl]-3-methyl-1,2-thiazole-4-carboxamide]	530 nM	120 nM
Cc1nsc(Nc2cnc3ccccc3n2)c1C(=O)Nc1cccc(C(=O)NC(C)C)c1 [Example 253, N-[3-(isopropylcarbamoyl)phenyl]-3-methyl-5-(quinoxalin-2-ylamino)-1,2-thiazole-4-carboxamide]	830 nM	2200 nM
Cc1nsc(Nc2cc(C#N)ccn2)c1C(=O)Nc1cccc(C(=O)NC(C)C)c1 [Example 254, 5-[(4-cyanopyridin-2-yl)amino]-N-[3-(isopropylcarbamoyl)phenyl]-3-methyl-1,2-thiazole-4-carboxamide]	2800 nM	2300 nM
Cc1nsc(Nc2ccc(C#N)cn2)c1C(=O)Nc1cccc(C(=O)NC(C)C)c1 [Example 255, 5-[(5-cyanopyridin-2-yl)amino]-N-[3-(isopropylcarbamoyl)phenyl]-3-methyl-1,2-thiazole-4-carboxamide]	3700 nM	10000 nM
COC(=O)CCCc1ccc(NC(=O)c2c(C)nsc2Nc2cc(C#N)ccn2)cc1 [Example 256, methyl 4-{4-[({5-[(4-cyanopyridin-2-yl)amino]-3-methyl-1,2-thiazol-4-yl}carbonyl)amino]phenyl}butanoate]	1600 nM	3600 nM
COC(=O)CCc1cccc(NC(=O)c2c(C)nsc2Nc2cnc3ccccc3n2)c1 [Example 257, methyl 3-[3-({[3-methyl-5-(quinoxalin-2-ylamino)-1,2-thiazol-4-yl]carbonyl}amino)phenyl]propanoate]	550 nM	2700 nM
Cc1nsc(Nc2cnc3ccccc3n2)c1C(=O)Nc1cccc(NS(=O)(=O)C2CCN(C(=O)OC(C)(C)C)CC2)c1 [Example 258, tert-butyl 4-{[3-({[3-methyl-5-(quinoxalin-2-ylamino)-1,2-thiazol-4-yl]carbonyl}amino)phenyl]sulfamoyl} piperidine-1-carboxylate]	600 nM	2000 nM
Cc1nsc(Nc2cnc(C(F)(F)F)cn2)c1C(=O)Nc1ccc(C(=O)NC2CCN(CC(F)F)CC2)cc1 [Example 259, N-(4-{[1-(2,2-difluoroethyl)piperidin-4-yl]carbamoyl}phenyl)-3-methyl-5-{[5-(trifluoromethyl)pyrazin-2-yl]amino}-1,2-thiazole-4-carboxamide]	400 nM	4400 nM
Cc1nsc(Nc2cnc(C(F)(F)F)cn2)c1C(=O)Nc1ccc(C(=O)N2CCN(CC(F)(F)F)CC2)cc1 [Example 260, 3-methyl-N-(4-{[4-(2,2,2-trifluoroethyl)piperazin-1-yl]carbonyl}phenyl)-5-{[5-(trifluoromethyl)pyrazin-2-yl]amino}-1,2-thiazole-4-carboxamide]	87 nM	400 nM
CCN1CCN(C(=O)c2ccc(NC(=O)c3c(C)nsc3Nc3cnc(C(F)(F)F)cn3)cc2)CC1 [Example 261, N-{4-[(4-ethylpiperazin-1-yl)carbonyl]phenyl}-3-methyl-5-{[5-(trifluoromethyl)pyrazin-2-yl]amino}-1,2-thiazole-4-carboxamide]	1100 nM	2900 nM
Cc1nsc(Nc2cnc(C(F)(F)F)cn2)c1C(=O)Nc1ccc(C(=O)N2CCN(C)CC2)cc1 [Example 262, 3-methyl-N-{4-[(4-methylpiperazin-1 yl)carbonyl]phenyl}-5-{[5-(trifluoromethyl)pyrazin-2-yl]amino}-1,2-thiazole-4-carboxamide]	260 nM	4800 nM
Cc1nsc(Nc2cc(C#N)ccn2)c1C(=O)Nc1ccc(OC2CCN(CC(F)F)CC2)nc1 [Example 263, 5-[(4-cyanopyridin-2-yl)amino]-N-(6-{[1-(2,2-difluoroethyl)piperidin-4-yl]oxy}pyridin-3-yl)-3-methyl-1,2-thiazole-4-carboxamide]	920 nM	3500 nM
Cc1nsc(Nc2cnc(C(F)(F)F)cn2)c1C(=O)Nc1ccc(F)c(OC2CCN(CC(F)(F)F)CC2)c1 [Example 264, N-(4-fluoro-3-{[1-(2,2,2-trifluoroethyl)piperidin-4-yl]oxy}phenyl)-3-methyl-5-{[5-(trifluoromethyl)pyrazin-2-yl]amino}-1,2-thiazole-4-carboxamide]	35 nM	72 nM
Cc1nsc(Nc2cnc(C(F)(F)F)cn2)c1C(=O)Nc1ccc(F)c(OC2CCN(CC(F)F)CC2)c1 [Example 265, N-(3-{[1-(2,2-difluoroethyl)piperidin-4-yl]oxy}-4-fluorophenyl)-3-methyl-5-{[5-(trifluoromethyl)pyrazin-2-yl]amino}-1,2-thiazole-4-carboxamide]	190 nM	150 nM
Cc1nsc(Nc2cnc(C(F)(F)F)cn2)c1C(=O)Nc1ccc(F)c(OC2CCN(CCF)CC2)c1 [Example 266, N-(4-fluoro-3-{[1-(2-fluoroethyl)piperidin-4-yl]oxy}phenyl)-3-methyl-5-{[5-(trifluoromethyl)pyrazin-2-yl]amino}-1,2-thiazole-4-carboxamide]	150 nM	160 nM
Cc1nsc(Nc2cncc(C(F)(F)F)n2)c1C(=O)Nc1ccc(F)c(OC2CCN(CC(F)(F)F)CC2)c1 [Example 267, N-(4-fluoro-3-{[1-(2,2,2-trifluoroethyl)piperidin-4-yl]oxy}phenyl)-3-methyl-5-{[6-(trifluoromethyl)pyrazin-2-yl]amino}-1,2-thiazole-4-carboxamide]	47 nM	20 nM
Cc1nsc(Nc2cncc(C(F)(F)F)n2)c1C(=O)Nc1ccc(F)c(OC2CCN(CC(F)F)CC2)c1 [Example 268, N-(3-{[1-(2,2-difluoroethyl)piperidin-4-yl]oxy}-4-fluorophenyl)-3-methyl-5-{[6-(trifluoromethyl)pyrazin-2-yl]amino}-1,2-thiazole-4-carboxamide]	38 nM	110 nM
Cc1nsc(Nc2cncc(C(F)(F)F)n2)c1C(=O)Nc1ccc(F)c(OC2CCN(CCF)CC2)c1 [Example 269, N-(4-fluoro-3-{[1-(2-fluoroethyl)piperidin-4-yl]oxy}phenyl)-3-methyl-5-{[6-(trifluoromethyl)pyrazin-2-yl]amino}-1,2-thiazole-4-carboxamide]	120 nM	210 nM
Cc1nsc(Nc2cnc(C(F)(F)F)cn2)c1C(=O)Nc1ccc(C(=O)NC2CN(CC(F)(F)F)C2)cc1 [Example 270, 3-methyl-N-(4-{[1-(2,2,2-trifluoroethyl)azetidin-3-yl]carbamoyl}phenyl)-5-{[5-(trifluoromethyl)pyrazin-2-yl]amino}-1,2-thiazole-4-carboxamide]	950 nM	10000 nM
Cc1nsc(Nc2cnc(C(F)(F)F)cn2)c1C(=O)Nc1ccc(C(=O)NC2CN(CC(F)F)C2)cc1 [Example 271, N-(4-{[1-(2,2-difluoroethyl)azetidin-3-yl]carbamoyl}phenyl)-3-methyl-5-{[5-(trifluoromethyl)pyrazin-2-yl]amino}-1,2-thiazole-4-carboxamide]	1100 nM	2100 nM
Cc1nsc(Nc2cncc(C(F)(F)F)n2)c1C(=O)Nc1ccc(C(=O)N2CCN(CC(F)(F)F)CC2)cc1 [Example 272, 3-methyl-N-(4-{[4-(2,2,2-trifluoroethyl)piperazin-1-yl]carbonyl}phenyl)-5-{[6-(trifluoromethyl)pyrazin-2-yl]amino}-1,2-thiazole-4-carboxamide]	230 nM	2400 nM
Cc1nsc(Nc2cncc(C(F)(F)F)n2)c1C(=O)Nc1ccc(C(=O)N2CCN(CC(F)F)CC2)cc1 [Example 273, N-(4-{[4-(2,2-difluoroethyl)piperazin-1-yl]carbonyl}phenyl)-3-methyl-5-{[6-(trifluoromethyl)pyrazin-2-yl]amino}-1,2-thiazole-4-carboxamide]	1100 nM	4800 nM
Cc1nsc(Nc2cncc(C(F)(F)F)n2)c1C(=O)Nc1ccc(C(=O)N2CCN(CCF)CC2)cc1 [Example 274, N-(4-{[4-(2-fluoroethyl)piperazin-1-yl]carbonyl}phenyl)-3-methyl-5-{[6-(trifluoromethyl)pyrazin-2-yl]amino}-1,2-thiazole-4-carboxamide]	140 nM	9000 nM
CCN1CCN(C(=O)c2ccc(NC(=O)c3c(C)nsc3Nc3cncc(C(F)(F)F)n3)cc2)CC1 [Example 275, N-{4-[(4-ethylpiperazin-1-yl)carbonyl]phenyl}-3-methyl-5-{[6-(trifluoromethyl)pyrazin-2-yl]amino}-1,2-thiazole-4-carboxamide]	840 nM	4400 nM
Cc1nsc(Nc2cncc(C(F)(F)F)n2)c1C(=O)Nc1ccc(OCCO)nc1 [Example 276, N-[6-(2-hydroxyethoxy)pyridin-3-yl]-3-methyl-5-{[6-(trifluoromethyl)pyrazin-2-yl]amino}-1,2-thiazole-4-carboxamide]	350 nM	1900 nM
Cc1nsc(Nc2cnc(C(F)(F)F)cn2)c1C(=O)Nc1ccc(OCCO)nc1 [Example 277, N-[6-(2-hydroxyethoxy)pyridin-3-yl]-3-methyl-5-{[5-(trifluoromethyl)pyrazin-2-yl]amino}-1,2-thiazole-4-carboxamide]	650 nM	10000 nM
Cc1nsc(Nc2cncc(C(F)(F)F)n2)c1C(=O)Nc1ccc(OCCCO)nc1 [Example 278, N-[6-(3-hydroxypropoxy)pyridin-3-yl]-3-methyl-5-{[6-(trifluoromethyl)pyrazin-2-yl]amino}-1,2-thiazole-4-carboxamide]	190 nM	1400 nM
